Results published in patent US11541065B2, “Compositions and methods for treating brain injury” (UNM RAINFOREST INNOVATIONS, priority 2018, dated 2023).

Key:
ERK MAPK = ERK MAPK phosphorylation in ipsilateral cortex after MCAO (immunoblot); format: in vivo, Wistar rats; details: HHcy rats, MCAO 60 min, three hours of reperfusion, vs vehicle treated rats
Protocol: FIG. 10. ERK MAPK phosphorylation. (A) Control and hyperhomocysteinemic (HHcy) rats were subjected to MCAO for 60 min followed by reperfusion (sham, 0, 3, 6, 12 h). Cortical tissue lysates from the ipsilateral hemisphere were analyzed by immunoblotting, using anti-pERK and anti-ERK antibodies. (B) Control, HHcy and HHcy rats treated with NVP-AAM077 (HHcy+NVP) were subjected to MCAO for 60 min followed by reperfusion for 3 h. Cortical tissue lysates from the ipsilateral hemisphere were analyzed by immunoblotting, using anti-pERK and anti-ERK antibodies. The extent of ERK MAPK phosphorylation was quantified using computer-assisted densitometry and Image J analysis. Values are mean±SEM (n=5). (A) *p<0.001 from corresponding control. (B) *p<0.001 from HHcy.
Next, whether a mild ischemic insult under hyperhomocysteinemic condition could lead to prolonged increase in ERK MAPK phosphorylation was evaluated using a middle cerebral artery occlusion (MCAO) model. Normal and hyperhomocysteinemic Wistar rats were subjected to MCAO for 60 minutes followed by reperfusion for specified time periods (0, 3, 6, 12 h). […] NVP-AM077, however, blocks the prolonged phosphrylation of ERK MAPK in hyperhomocysteinemic rats at three hours of reperfusion. […]

[1] = tested on: hyperhomocysteinemic rats subjected to MCAO; test: CatWalk gait analysis after MCAO; format: in vivo, male Wistar rats; details: HHcy rats, 7 days after MCAO, NVP-AAM077 1.2 mg/kg
Protocol: All rats were subjected to a battery of behavioral tests on day 7 (CatWalk), day 8 (cylinder and rotarod tests) and day 9 (adhesive test) after MCAO to evaluate normal gait, motor coordination and sensory motor functions. Habituation and training (3 days) was performed for one week before MCAO. The first two trainings days were before osmotic pump implantation and the third training day was after pump implantation. An experienced observer blinded to the experimental conditions evaluated all behavioral parameters.
Catwalk: An automated quantitative gait analysis system (Catwalk XT 10.5, Noldus) was used to assess deficits in normal gait in the control, hyperhomocysteinemic and NVP-AAM077 treated hyperhomocysteinemic rats as described earlier (Parkkinen et a., 2013, Stroke Res Treat 2013:410972; Wang et al., 2008, J Cereb Blood Flow Metab 28:1936-50). Briefly, rats were trained to walk on a glass platform or walkway (1.3 m long and 90 mm wide) with a fluorescent light reflected internally in the glass floor as the rats cross the walkway, scattering at points where the paws touch the glass. […] The camera recorded three such complete or successful runs across the walkway and the average of the three runs is reported. An experienced observer, blinded to the experimental group, labeled each paw on the recorded video and paw-related parameters were analyzed. […]

C[C@H](NC(c1cccc2[nH]c(=O)c(=O)[nH]c12)P(=O)(O)O)c1ccc(Br)cc1 (stereo partly drawn) [NVP-AAM077, ({[(1S)-1-(4-bromophenyl)ethyl]amino}-(2,3-dioxo-1,4-dihydroquinoxalin-5-yl)methyl)phosphonic acid]
ERK MAPK phosphorylation in ipsilateral cortex (ERK MAPK): significant reduction ERK MAPK phosphorylation | print position of the affected side ([1]; untreated HHcy 0.72±0.15): 1.37±0.097 cm | print area of the affected forepaw ([1]; untreated HHcy 1.06±0.097): 1.41±0.092 cm^2
